Literature values in patent publication US5087633A (G. D. Searle & Co., priority 1989, dated 1992).

Settings: in vivo; cited from earlier work

SMILES: CCCCCNCC(N)=O [milacemide]
- Increase of whole brain content of glycine: 30%
